Laboratory results as given in US20220154192A1, “SYSTEM AND METHOD FOR LIGHT-REGULATED OLIGOMERIZATION AND PHASE SEPARATION OF FOLDED DOMAINS AND RNA GRANULE-ASSOCIATED PROTEIN DOMAINS FOR DRUG- BASED SCREENING APPLICATIONS” (The Trustees of Princeton University, priority 2019, published 2022).
“Also recorded” adds a separate entry of the source. *1 amine or outer side, *2 acyl side, *3 side chain or, on linkers, in order; H or OH if unused. Where a SMILES comes first, the peptide text is derived from it. Bridges are numbered along the chain shown (N, C = ends). Roman numbers before positions name the chains, in order. [ ]: non-standard residue; d: D form. Actinocin(9to1) = Cc1c2oc3c(C)ccc(C(=O)[*:1])c3nc-2c(C(=O)[*:2])c(N)c1=O; NMeV = CN[C@H](C(=O)O)C(C)C; Sar = CNCC(=O)O

Assays:
[1] = tested on: opto-SGs (optogenetic stress granules) of G3BP ΔNTF2 Corelets in U2OS cells; assay: G3BP ΔNTF2 Corelet opto-SG intracellular phase diagram; type: cell-based, human
Source text: To quantitatively interrogate the relationship between RBD valence and the threshold protein complex concentration for stress granule formation, the Corelet system described previously (the cores are comprised of a 24-mer ferritin complex coated by iLID molecules, which serves as an oligomerization platform mediated by blue light-stimulated sspB-iLID interactions, where the sspB-iLID is fused to the IDR regions and RBDs of G3BP) can be utilized to quantitatively map valence and concentration-dependent phase diagrams.
Pre-activation and post-activation images of G3BP KO cells stably expressing the indicated fusion proteins were captured with the mCherry (560) channel only to visualize the sspB component without triggering light-induced dimerization with the iLID-mGFP tagged Ferritin core. Cells were activated with a 488-laser using 1% laser power to cause dimerization of iLID and sspB. Activation of cells was achieved by imaging the mCherry and mGFP channels simultaneously using a 6-second frame interval for an area of 120×120 μm2 (1024×1024 pixels) at Nyquist zoom.
(§1) Cell treatment with arsenite to dissociate polysomes Cells were treated by adding sodium arsenite to cell media at a concentration of 400 μM, which is in excess of saturating concentrations for polysome disassembly (Kedersha et al., 2016). […] Inhibition of polysome disassembly by pre-treating with cycloheximide was added to a final concentration of 100 μg/mL (G3BP KO cells expressing indicated fluorescent fusion proteins). Following 30-minutes of incubation, arsenite was added at a concentration of 400 μM. 1-hour later, cells were assessed for formation of stress granules (GFP-G3BP rescue) or activation cycles were performed (Corelets).
Actinomycin D dissolved in DMSO was used to treat G3BP KO cells expressing indicated Corelets at a concentration of 5 μg/mL. Images were taken 12-18 hours after actinomycin D treatment, a time interval during which nucleoli were no longer apparent by bright field observation and the vast majority of mRNA was expected to be degraded. Final concentration of DMSO was 0.5%. For Actinomycin D plus arsenite experiments, arsenite was added at a concentration of 400 μM˜12 hours following actinomycin D treatment and cells were imaged 1-2 hours subsequently. […] Time point was chosen to maximize the time since treatment (i.e. to reduce RNA cells by as much as possible) without extensive lethality from the drug.
In order to determine precise phase threshold boundaries for intracellular phase diagrams, analyzed cells must feature high variability with respect to sspB-mCherry and iLID-mGFP stoichiometries to sample sufficient core concentrations and valencies. In order to achieve a broad concentration range for both components, G3BP KO cells were transduced in 96-well plates (Cellvis) using an arrayed lentivirus approach. In this protocol, rows varied from 2 to 60 μL iLID-GFP-Fe lentivirus; columns, 2 to 60 μL mCherry-sspB-open reading frame (ORF)/ORF-mCherry-sspB lentivirus. G3BP KO cells were plated directly into the arrayed lentivirus to attain ˜25% confluency upon subsequent attachment to the plastic substrate.

[2] = tested on: CAPRIN1 RGG Corelets; assay: CAPRIN1 RGG (RBD) Corelet phase separation after RNA depletion; type: cell-based, human; details: RNA depletion by Actinomycin D
Source text: High valence G3BP RBD nodes (but not dimeric bridges) are sufficient to induce stress granule formation following polysome disassembly, but it is unclear whether this is a unique feature of G3BP or common to RNA-binding nodes that interact with G3BP NTF2. We reasoned that if such NTF2-associated RBPs contribute essential, additive RNA-binding valence to the multi-protein complex, synthetic high valence nodes connected to individual RBDs would nucleate opto-SGs in isolation (i.e. mimic G3BP RBD Corelets). To test this, the RBDs of CAPRIN1 and UBAP2L were oligomerized utilizing the Corelet system, and mapped phase diagrams in both non-treated and arsenite-exposed cells. […] Further, condensate protein composition, P-body attachment, and relative phase thresholds are not determined by the type or number of RNA-binding motifs. […]
In order to determine precise phase threshold boundaries for intracellular phase diagrams, analyzed cells must feature high variability with respect to sspB-mCherry and iLID-mGFP stoichiometries to sample sufficient core concentrations and valencies. […] In this protocol, rows varied from 2 to 60 μL iLID-GFP-Fe lentivirus; columns, 2 to 60 μL mCherry-sspB-open reading frame (ORF)/ORF-mCherry-sspB lentivirus. […]

[3] = tested on: G3BP KO cells; assay: Lethality of drug treatment in cultured cells (qualitative observation); details: arsenite 400 μM; Actinomycin D 5 μg/mL
Procedure: as §1
Actinomycin D dissolved in DMSO was used to treat G3BP KO cells expressing indicated Corelets at a concentration of 5 μg/mL. Images were taken 12-18 hours after actinomycin D treatment, a time interval during which nucleoli were no longer apparent by bright field observation and the vast majority of mRNA was expected to be degraded. Final concentration of DMSO was 0.5%. For Actinomycin D plus arsenite experiments, arsenite was added at a concentration of 400 μM˜12 hours following actinomycin D treatment and cells were imaged 1-2 hours subsequently.

[4] = tested on: stress granules; assay: Arsenite-induced stress granule formation time course; type: cell-based, human; details: arsenite 400 μM
Procedure: as §1

[5] = tested on: stress granule formation in G3BP KO U2OS cells; assay: G3BP rescue / rescue competition of stress granule formation in G3BP KO U2OS cells; type: cell-based, human; details: for rescue of stress granule formation in G3BP KO cells: expressed protein in G3BP KO cells
Procedure: For G3BP rescue competition experiments, an identical arrayed lentivirus approach was used as described in Phase diagram data collection (i.e. 2-60 μL G3BPmCherry and 2-60 μL mGFP-ORF, arrayed 4-wells by 4-wells for 16-wells total of a 96-well plate). G3BP KO cells were plated into lentivirus then combined and passaged 72-hours later.
Live cell confocal microscopy was performed on Day 5 post-transduction. For each condition (GFP-tagged protein of interest), 4 separate experiments (each experiment=1-well/arsenite treatment) were performed on three separate days with numerous technical replicates (fields of view). Live confocal imaging was performed 1-2 hours following arsenite treatment. mCherry and mGFP concentrations were determined similarly as for phase diagrams and manual scoring of stress granule absence or presence was performed. Similar protocols were used to assess rescue in the absence of competition.
The concentration of each cell was determined via manual image segmentation as previously described and absence or presence of stress granules was annotated. To determine a boundary from the data, a support vector machine (SVM) trained using the concentrations of the two components as explanatory variables and the categorical stress granule state as a response variable by applying the fitcsvm( ) function in the MATLAB Statistics and Machine Learning package using the default solver. Briefly, a support vector machine constructs a linear decision surface based on boundary points (‘support vectors’), with the assumption that the data is linearly separable. […]
For each experiment, the concentration of the protein of interest was determined for each cell, and the presence of stress granules was categorized. […] Specifically, the probability density was calculated by binning the concentration distribution using a square root number rule. Within each bin, the probability of having stress granules was calculated as the number of cells with stress granules over the total number of cells in that bin. […]

Cc1c2oc3c(C)ccc(C(=O)N[C@@H]4C(=O)N[C@H](C(C)C)C(=O)N5CCC[C@H]5C(=O)N(C)CC(=O)N(C)[C@@H](C(C)C)C(=O)O[C@@H]4C)c3nc-2c(C(=O)N[C@@H]2C(=O)N[C@H](C(C)C)C(=O)N3CCC[C@H]3C(=O)N(C)CC(=O)N(C)[C@@H](C(C)C)C(=O)O[C@@H]2C)c(N)c1=O [Actinomycin D] (I: T[dV]P[Sar][NMeV] / II: T[dV]P[Sar][NMeV]; ester I:1-I:C, II:1-II:C; linker I:N-II:N via Actinocin(9to1))
formation of opto-SGs ([1]; Actinomycin D 5 μg/mL, 12-18 hours, FIG. 15D): prevents the formation of opto-SGs; also recorded: disrupts the formation of SGs | phase separation of CAPRIN1 RGG Corelets [2]: abrogates phase separation | time after treatment at which cells began to die / treatment was lethal [3]: 30 to 36 h

O=[As]O [arsenite, sodium arsenite]
time by which SG number/size peaked [4]: ≤ 45 min | valence required to drive condensation ([1]; at 0.15 μM Core, arsenite 400 μM, non-stressed cells need valence ~24): ~8 | time after treatment at which cells began to die / treatment was lethal [3]: ~6 h

C[C@@H]1C[C@@H]([C@H](O)CC2CC(=O)NC(=O)C2)C(=O)[C@@H](C)C1 [cycloheximide]
calculated best-fit phase threshold ([1]; arsenite and cycloheximide, FIG. 15C vs FIG. 15A): almost identical to that of nontreated cells | arsenite-driven shift in the opto-SG phase diagram ([1]; pre-treatment with cycloheximide 100 μg/mL 30 min, then arsenite 400 μM): negated

G3BP F33W: G3BP variant unable to bind USP10 or CAPRIN1
rescue of stress granule formation in G3BP KO cells [5]: rescues SG formation

G3BP: stress granule nucleating protein, fluorescently tagged, expressed in G3BP KO cells
EC50 ([5]; G3BP KO U2OS cells, arsenite, read-out: G3BP concentration for rescue of stress granule formation): 620 nM

B1: CAPRIN1: NTF2-interacting RNA-binding stress granule protein (protein, UniProt Q14444 2-709, looked up)
Caprin-1: PSATSHSGSGSKSSGPPPPSGSSGSEAAAGAGAAAPASQHPATGTGAVQTEAMKQILGVIDKKLRNLEKKKGKLDDYQERMNKGERLNQDQLDAVSKYQEVTNNLEFAKELQRSFMALSQDIQKTIKKTARREQLMREEAEQKRLKTVLELQYVLDKLGDDEVRTDLKQGLNGVPILSEEELSLLDEFYKLVDPERDMSLRLNEQYEHASIHLWDLLEGKEKPVCGTTYKVLKEIVERVFQSNYFDSTHNHQNGLCEEEEAASAPAVEDQVPEAEPEPAEEYTEQSEVESTEYVNRQFMAETQFTSGEKEQVDEWTVETVEVVNSLQQQPQAASPSVPEPHSLTPVAQADPLVRRQRVQDLMAQMQGPYNFIQDSMLDFENQTLDPAIVSAQPMNPTQNMDMPQLVCPPVHSESRLAQPNQVPVQPEATQVPLVSSTSEGYTASQPLYQPSHATEQRPQKEPIDQIQATISLNTDQTTASSSLPAASQPQVFQAGTSKPLHSSGINVNAAPFQSMQTVFNMNAPVPPVNEPETLKQQNQYQASYNQSFSSQPHQVEQTELQQEQLQTVVGTYHGSPDQSHQVTGNHQQPPQQNTGFPRSNQPYYNSRGVSRGGSRGARGLMNGYRGPANGFRGGYDGYRPSFSNTPNSGYTQSQFSAPRDYSGYQRDGYQQNFKRGSGQSGPRGAPRGRGGPPRPNRGMPQMNTQQVN
rescue of stress granule formation in G3BP KO cells [5]: does not rescue
